Test results published in patent publication US9499570B2, “Boron containing small molecules” (priority 2010, dated 2016).
“Also recorded” adds a separate entry of the source.

Columns and labels:
Brugia malayi = Brugia malayi in vitro assay, adult female worms; details: 50 uM
Description: Adult female worms are shipped from TRS Labs Inc. (Nonglak Supakorndej, Lab Director, 295 Research Dr., Athens, Ga. 30605; 706-549-0764) via Fed Ex. Individual worms are shipped in 2 mls vials with RPMI on Mondays and arrive at the […] Center lab on Tuesday mornings. Individual worms are poured into each well (24-well tissue culture plates) to avoid handling worms since they are very delicate and easily broken. Transport media is removed and replaced with 0.5 mls of RPMI-1640 (25 mM HEPES, 2 g/L NaHCO3, Antibiotic/Antimycotic, 5% HI FBS). Worms are maintained in a 37° C. 5% CO2 incubator. Compounds are added directly to each duplicate well (5 ul of 5 mM for a final concentration of 50 uM). DMSO (5 ul) is used as a negative control and Ivermectin (Sigma) is used as a positive control at 100 uM/well and 20 uM/well. Adult filarial nematodes can shed/give birth to microfilarial worms (mf) during the course of the assay. Wells were reviewed for the presence of mf, and the viability of mf, by visual observation of the well on the last day of observation (Day 7). Plates are examined once a day for 4-7 days. […] If changes are observed, worms are more closely examined under a dissecting microscope.

[1] = system: Schistosoma mansoni schistosomula; assay: Schistosoma mansoni schistosomula phenotype screen in vitro; details: Second Set, 5 uM, listed as 6-(1-Hydroxy-1,3-dihydro-benzo[c][1,2]oxaborol-5-yloxy)-2-(4-oxo-pentyloxy)-5-ch
Excerpt: (§1) Puerto Rican isolates of S. mansoni using Biomphalaria glabrata snails and golden hamsters as intermediate and definitive hosts, respectively, were maintained and handled in the University of California-San Francisco Sandler Center for Tropical Medicine. Patent B. glabrata snails (6-8 weeks after exposure to 5-10 infectious miracidia) were induced to shed infective larvae (cercariae) under light stimulus into the surrounding water. Cercariae were washed in rounds of ice-cold water and concentrated through and over sieves of varying pore sizes. They were then mechanically sheared (separation of heads from tails) as described in Colley D G, et al. Exp Parasitol 1974, 35:44-51, in ice-cold Incomplete Medium 169 (as described in Basch P F. J Parasitol 1981, 67:179-185, minus FBS and antibiotics) by passing 15 times through a double headed 22-gauge syringe needle connected to two 10 mL syringes. The resulting cercarial heads (schistosomula) were separated from their tails by swirling in a petri dish. Concentrated schistosomula were added to a sterile 1.5 mL centrifuge tube and allowed to settle over ice. Schistosomula were transferred to a sterile environment and washed 4 times in Incomplete Medium 169 prior to plating.
(§2) Two sets of screening were performed. In the first set, compounds were screened against schistosomula and observations were made at 24 hours, 2 days, 3 days, 4 days, and 6 days. In the second set, compounds were screened against schistosomula with observations at 24 hours, 2 days, 3 days, and 4 days and adult worms at 7 hours, 24 hours, 4 days, and 6 days.
Plates contain 200 schistosomula/well in […] complete Basch medium and were maintained at 37° C. in a 5% CO2 atmosphere. All compounds were tested in duplicate with at least two experimental replicates. Compounds and control compounds were added to the plates using the Biomek FXp using 96-well disposable tips. Final concentration of DMSO in each well was 0.5%.
(§3) A semi-quantitative and controlled nomenclature for phenotypes that can arise as a result of compound insult to both schistosomula and adults was utilized (Abdulla M H, et al., PLoS Negl Trop Dis 2009, 3:e478). Phenotypes were recorded by visual inspection and on a flexible time basis but at least at 24 h and 4 day time-points in the case of large scale screening. […] To help eliminate bias, two screen analysts scored phenotypes ‘blind’ both to knowledge of the contents of each screening plate and the phenotypes scored by his/her colleague. Upon completing their individual assessments, each analyst's ‘hit sheet’ was then compared to derive a ‘consensus hit sheet’. Discrepancies in analysts' hit sheets were re-evaluated under the microscope to eventually make a consensus hit call.
(§4) Hyper-coiled and coiled represent a verbal description of the visual phenotype as compared to the DMSO control. The + and ++ and +++ means more of the phenotype which preceded it. The − means less of the phenotype which preceded it. Results

[2] = system: Schistosoma mansoni adult worms; assay: Schistosoma mansoni adult worm phenotype screen in vitro; details: Second Set, 5 uM
Excerpt: as §1, §2
Given the delicacy and size (0.5-1.5 cm in length) of this stage all operations were performed manually by the Sandler Center. 24-well plates were set up with compound (final DMSO concentration=0.5%) containing approximately 5 pairs of worms (S. mansoni has separate sexes) in 2 mL complete Basch medium per well. Plates were maintained at 37° C. in a 5% CO2 atmosphere. All compounds were tested in duplicate with at least two experimental replicates.
as §3, §4

CC(=O)CCCOc1nc(Oc2ccc3c(c2)COB3O)c(Cl)cc1C#N [D231, 5-Chloro-6-(1-hydroxy-1,3-dihydrobenzo[c][1,2]oxaborol-5-yloxy)-2-(4-oxopentyloxy)nicotinonitrile]
Presence and viability of microfilarial worms (mf) Day 7 (Brugia malayi; trial one): no mf and obs | Worm activity / phenotype Day 1 (Brugia malayi; trial one): hyper-; also recorded: coiled | Worm activity / phenotype Day 2 (Brugia malayi; trial one): hyper-; also recorded: coiled | Worm activity / phenotype Day 7 (Brugia malayi; trial one): 0, and coiled | Presence and viability of microfilarial worms (mf) Day 7 (Brugia malayi; trial two): no mf and obs | Worm activity / phenotype Day 1 (Brugia malayi; trial two): hyper-; also recorded: coiled | Worm activity / phenotype Day 2 (Brugia malayi; trial two): hyper-; also recorded: coiled | Worm activity / phenotype Day 7 (Brugia malayi; trial two): 0, and coiled | Schistosomula (juvenile infective form) worm screen phenotype 24 h ([1]; 24 h): R, O++,; also recorded: some deg-m | Schistosomula (juvenile infective form) worm screen phenotype 2 d ([1]; 2 d): O++, and R−, and more and deg-M | Schistosomula (juvenile infective form) worm screen phenotype 3 d ([1]; 3 d): O++, R−,; also recorded: more deg-M | Schistosomula (juvenile infective form) worm screen phenotype 4 d ([1]; 4 d): O++, R−,; also recorded: more deg-M | Adult worm screen phenotype 7 h ([2]; 7 h, listed as 6-(1-Hydroxy-1,3-dihydro-benzo[c][1,2]oxaborol-5-yloxy)-2-(4-oxo-pentyloxy)-5-ch): O+++,; also recorded: Sex sep (Sex sep=worm pairs have separated); also recorded: (violent; also recorded: motion) | Adult worm screen phenotype 24 h ([2]; 24 h, listed as 6-(1-Hydroxy-1,3-dihydro-benzo[c][1,2]oxaborol-5-yloxy)-2-(4-oxo-pentyloxy)-5-ch): O+++, Sex; also recorded: sep (violent; also recorded: motion) | Adult worm screen phenotype 4 d ([2]; 4 d, listed as 6-(1-Hydroxy-1,3-dihydro-benzo[c][1,2]oxaborol-5-yloxy)-2-(4-oxo-pentyloxy)-5-ch): O++, sex; also recorded: sep on sides,; also recorded: males dark | Adult worm screen phenotype 6 d* ([2]; 6 d): Dark, S
